Assay results taken from ChEMBL document CHEMBL4229562, “Introduction of a Methyl Group Curbs Metabolism of Pyrido[3,4- d]pyrimidine Monopolar Spindle 1 (MPS1) Inhibitors and Enables the Discovery of the Phase 1 Clinical Candidate N2-(2-Ethoxy-4-(4-methyl-4 H-1,2,4-triazol-3-yl)phenyl)-6-methyl- N8-neopentylpyrido[3,4- d]pyrimidine-2,8-diamine …” (J Med Chem, 2018).
In brackets after ≈: the same amount, converted by molar mass.

Assays:
[1] = Lipophilicity, log P of the compound; type: physicochemical; conditions: octanol/water
[2] = target: T1, Dual specificity protein kinase TTK (Homo sapiens, UniProt P33981)
T1 sequence (P33981 whole entry): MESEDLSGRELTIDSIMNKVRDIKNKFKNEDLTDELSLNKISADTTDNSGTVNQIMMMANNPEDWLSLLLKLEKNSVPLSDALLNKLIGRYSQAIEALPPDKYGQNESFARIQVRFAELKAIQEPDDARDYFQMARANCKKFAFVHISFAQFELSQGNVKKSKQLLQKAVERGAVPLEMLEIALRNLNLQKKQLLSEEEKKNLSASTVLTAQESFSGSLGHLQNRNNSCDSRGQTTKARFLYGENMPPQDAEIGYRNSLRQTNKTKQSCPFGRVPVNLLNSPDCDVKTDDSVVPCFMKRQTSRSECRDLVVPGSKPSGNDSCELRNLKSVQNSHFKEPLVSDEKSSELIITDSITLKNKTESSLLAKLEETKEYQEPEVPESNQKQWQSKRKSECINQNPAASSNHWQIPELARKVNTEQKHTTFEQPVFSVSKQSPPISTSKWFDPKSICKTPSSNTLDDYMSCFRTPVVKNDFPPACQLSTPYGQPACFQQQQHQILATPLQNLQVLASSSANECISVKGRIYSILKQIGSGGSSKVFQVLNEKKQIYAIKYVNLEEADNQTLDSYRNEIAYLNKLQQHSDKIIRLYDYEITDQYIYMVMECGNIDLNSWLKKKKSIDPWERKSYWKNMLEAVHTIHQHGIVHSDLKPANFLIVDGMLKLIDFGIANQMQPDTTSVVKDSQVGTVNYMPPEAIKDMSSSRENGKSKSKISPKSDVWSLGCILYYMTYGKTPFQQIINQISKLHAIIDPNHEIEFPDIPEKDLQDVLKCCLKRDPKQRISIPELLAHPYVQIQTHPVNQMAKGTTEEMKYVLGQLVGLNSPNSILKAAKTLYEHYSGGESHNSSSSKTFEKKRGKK
Description: Inhibition of MPS1 autophosphorylation at Thr33/Ser37 in human HCT116 cells after 2 hrs by MSD assay

CDK2/Cyclin A2 = CDK2/Cyclin A2 (Homo sapiens, UniProt P24941)
[3] = target: T1, Dual specificity protein kinase TTK; remark: listed apart in the source
Description: Inhibition of full length human N-terminal 6xHis-tagged MPS1 expressed in baculovirus expression system using 5FAM-H236 peptide as substrate after 60 to 90 mins by caliper assay

[4] = Intrinsic clearance in CD1 mouse liver microsomes assessed per mg protein at 1 uM preincubated for 10 mins followed NADPH/UDP-glucuronic acid addition and measured after 30 mins by LC-MS/MS analysis; type: ADME, microsome; conditions: 0.5 h
[5] = Intrinsic clearance in human liver microsomes assessed per mg protein at 1 uM preincubated for 10 mins followed NADPH/UDP-glucuronic acid addition and measured after 30 mins by LC-MS/MS analysis; type: ADME, microsome; conditions: 0.5 h
[6] = Clearance in rat at 5 mg/kg, iv by ESI-LCMS/MS analysis; type: ADME, organism-based; conditions: in vivo
[7] = Cmax in rat at 5 mg/kg, po by ESI-LCMS/MS analysis; type: ADME, organism-based; design: dose 5 mg/kg, route oral; conditions: in vivo
[8] = Plasma concentration in doxycycline-inducible human DLD-1 cell xenografted mouse model at 25 mg/kg, po administered as single dose and measured after 24 hrs post dose by LC/MS analysis; type: ADME, organism-based
[9] = Volume of distribution at steady state in rat at 5 mg/kg, iv by ESI-LCMS/MS analysis; type: ADME, organism-based; conditions: in vivo, read-out: Vdss
[10] = Volume of distribution at steady state in mouse at 5 mg/kg, iv by ESI-LCMS/MS analysis; type: ADME, organism-based; conditions: in vivo, read-out: Vdss
[11] = Cmax in mouse at 5 mg/kg, po by ESI-LCMS/MS analysis; type: ADME, organism-based; design: dose 5 mg/kg, route oral; conditions: in vivo
[12] = AUClast in mouse at 5 mg/kg, po measured after 6 hrs by ESI-LCMS/MS analysis; type: ADME, organism-based; conditions: in vivo
[13] = Protein binding in mouse plasma; type: ADME, cell-free
Mus musculus [14] = experiment: Oral bioavailability in mouse at 5 mg/kg by ESI-LCMS/MS analysis; type: ADME, organism-based; conditions: in vivo
[15] = AUClast in rat at 5 mg/kg, po measured after 6 hrs by ESI-LCMS/MS analysis; type: ADME, organism-based; conditions: in vivo
Rattus norvegicus [16] = experiment: Oral bioavailability in rat at 5 mg/kg by ESI-LCMS/MS analysis; type: ADME, organism-based; conditions: in vivo
Mus musculus [17] = experiment: Half life in mouse at 5 mg/kg, iv by ESI-LCMS/MS analysis; type: ADME, organism-based; conditions: in vivo
[18] = Solubility of the compound in PBS buffer at pH 7.4 by HPLC analysis; type: physicochemical
Rattus norvegicus [19] = experiment: Half life in rat at 5 mg/kg, iv by ESI-LCMS/MS analysis; type: ADME, organism-based; conditions: in vivo
[20] = Clearance in mouse at 5 mg/kg, iv by ESI-LCMS/MS analysis; type: ADME, organism-based; conditions: in vivo
[21] = AUClast in rat at 5 mg/kg, po measured after 24 hrs by ESI-LCMS/MS analysis; type: ADME, organism-based; conditions: in vivo
Rattus norvegicus [22] = experiment: Half life in rat at 1 mg/kg, iv by ESI-LCMS/MS analysis; type: ADME, organism-based; conditions: in vivo
[23] = Volume of distribution at steady state in rat at 1 mg/kg, iv by ESI-LCMS/MS analysis; type: ADME, organism-based; conditions: in vivo, read-out: Vdss

| SMILES | logP [1] | IC50 [2] | IC50 (CDK2/Cyclin A2) | Ki (CDK2/Cyclin A2) | IC50 [3] | Ki [3] | CLH [4] | CLH [5] | solubility [18] | further results |
| --- | --- | --- | --- | --- | --- | --- | --- | --- | --- | --- |
| COc1cc(-c2cnn(C)c2C)ccc1Nc1ncc2ccnc(NCC(C)(C)C)c2n1 | 4.42 | 95 nM | 3000 nM | 1500 nM | 79 nM | 0.78 nM | – | – | – | – |
| COc1cc(-c2cnc(C)n2C)ccc1Nc1ncc2ccnc(NCC(C)(C)C)c2n1 | 4.27 | 44 nM | 86 nM | 43 nM | 8.5 nM | 0.084 nM | 92.5 µL/min/mg | – | – | – |
| COc1cc(-c2cnc(C)n2C)ccc1Nc1ncc2cc(C)nc(NCC(C)(C)C)c2n1 | 4.55 | 170 nM | 1400 nM | 720 nM | 9.5 nM | 0.094 nM | 34.5 µL/min/mg | 28.2 µL/min/mg | – | – |
| COc1cc(-c2cn(C)nc2C)ccc1Nc1ncc2ccnc(NCC(C)(C)C)c2n1 | 4.56 | 230 nM | 2800 nM | 1400 nM | 2500 nM | 24 nM | – | – | – | – |
| CCOc1cc(-c2nncn2C)ccc1Nc1ncc2cc(C)nc(N3CC(C)(C)C3)c2n1 | 3.85 | 37 nM | 1600 nM | 810 nM | 8.9 nM | 0.088 nM | 44.3 µL/min/mg | 25.2 µL/min/mg | 31.5 µM (≈ 14 µg/mL) | clearance [6]: 7.35 mL/min/kg; Cmax [7]: 1420 nM; Vd [9]: 1.88 L/kg; Vd [10]: 2.09 L/kg; Cmax [11]: 2350 nM; AUC(0-t) at 6 h [12]: 8.11 µM·h; PPB [13]: 99.28%; F (Mus musculus [14]): 75%; F (Rattus norvegicus [16]): 72%; t1/2 (Mus musculus [17]): 1.58 h; t1/2 (Rattus norvegicus [19]): 3.03 h; clearance [20]: 16.3 mL/min/kg; AUC(0-t) at 24 h [21]: 18.3 µM·h |
| CCOc1cc(-c2nncn2C)ccc1Nc1ncc2cc(C)nc(N3CCCC3)c2n1 | 3.58 | 370 nM | 1100 nM | 550 nM | 83 nM | 0.82 nM | – | – | – | – |
| CCOc1cc(-c2nncn2C)ccc1Nc1ncc2cc(C)nc(N3CC(C)(C#N)C3)c2n1 | 3.25 | 110 nM | 2700 nM | 1400 nM | 20 nM | 0.2 nM | 24.7 µL/min/mg | 5.6 µL/min/mg | 6.8 µM (≈ 3.1 µg/mL) | – |
| COc1cc(-c2nnc3n2CCC3)ccc1Nc1ncc2cc(C)nc(NCC(C)(C)C)c2n1 | 4.4 | 240 nM | 250 nM | 130 nM | 19 nM | 0.19 nM | 28.8 µL/min/mg | 28.8 µL/min/mg | 1.7 µM (≈ 0.78 µg/mL) | – |

Now from value to compound, other results behind:

| logP [1] | IC50 [2] | IC50 (CDK2/Cyclin A2) | Ki (CDK2/Cyclin A2) | IC50 [3] | Ki [3] | CLH [4] | CLH [5] | solubility [18] | SMILES | further results |
| --- | --- | --- | --- | --- | --- | --- | --- | --- | --- | --- |
| 4.27 | – | – | – | – | – | – | – | – | COc1cc(-c2cnn(C)c2)ccc1Nc1ncc2ccnc(NCC(C)(C)C)c2n1 | – |
| 3.08 | 37 nM | 2500 nM | 1300 nM | 11 nM | 0.11 nM | 32.9 µL/min/mg | 9.4 µL/min/mg | 56.2 µM (≈ 27.3 µg/mL) | CCOc1cc(-c2nncn2C)ccc1Nc1ncc2cc(C)nc(N3CC4(CCOCC4)C3)c2n1 | clearance [6]: 7.59 mL/min/kg; Cmax [7]: 1180 nM; concentration at 24 h [8]: < 10 nM; Vd [9]: 0.89 L/kg; Vd [10]: 1.21 L/kg; Cmax [11]: 3080 nM; AUC(0-t) at 6 h [12]: 4.78 µM·h; PPB [13]: 98.09%; F (Mus musculus [14]): 63%; AUC(0-t) at 6 h [15]: 5.16 µM·h; F (Rattus norvegicus [16]): 22%; t1/2 (Mus musculus [17]): 0.66 h; t1/2 (Rattus norvegicus [19]): 1.5 h; clearance [20]: 22.6 mL/min/kg |
| 4.75 | 230 nM | 360 nM | 180 nM | 12 nM | 0.12 nM | 27.7 µL/min/mg | 23 µL/min/mg | 77.6 µM (≈ 40.2 µg/mL) | CCOc1cc(-c2nnc(CCN(C)C)n2C)ccc1Nc1ncc2cc(C)nc(NCC(C)(C)C)c2n1 | – |
| 3.58 | 3800 nM | 26000 nM | 13000 nM | 400 nM | 4 nM | – | – | – | CCOc1cc(-c2nncn2C)ccc1Nc1ncc2cc(C)nc(N3CCC3(C)C)c2n1 | – |
| 4.49 | 33 nM | 940 nM | 470 nM | 12 nM | 0.12 nM | 32.9 µL/min/mg | 20.4 µL/min/mg | 1.8 µM (≈ 0.829 µg/mL) | CCOc1cc(-c2nnc(C)n2C)ccc1Nc1ncc2cc(C)nc(NCC(C)(C)C)c2n1 | – |
| 4.61 | 23 nM | 150 nM | 77 nM | 4.7 nM | 0.047 nM | 25.3 µL/min/mg | 15.2 µL/min/mg | – | CCOc1cc(-c2nncn2C)ccc1Nc1ncc2cc(C)nc(N[C@@H](C)C(C)(C)C)c2n1 | t1/2 (Rattus norvegicus [22]): 4.52 h; Cmax [7]: 1890 nM; Vd [10]: 2.19 L/kg; Cmax [11]: 2920 nM; Vd [23]: 1.88 L/kg; AUC(0-t) at 6 h [12]: 13.8 µM·h; PPB [13]: 99.91%; F (Mus musculus [14]): 86%; F (Rattus norvegicus [16]): 92%; t1/2 (Mus musculus [17]): 3.47 h; clearance [20]: 8.4 mL/min/kg |
| 4.75 | 250 nM | > 10000 nM | > 5000 nM | 38 nM | 0.38 nM | 36.4 µL/min/mg | 18.6 µL/min/mg | – | CCOc1cc(-c2nnc3n2CCC3)ccc1Nc1ncc2cc(C)nc(NCC(C)(C)C)c2n1 | – |
